In ChEMBL document CHEMBL1914304 (J Med Chem, 2011):

Tests used:
[1] = system: HepG2; test: Cytotoxicity against human HepG2 cells after 72 hrs by luminescence assay; format: cell-based; details: hepg2, 72 h
[2] = system: HEK293; test: Cytotoxicity against human HEK293 cells after 72 hrs by luminescence assay; format: cell-based; details: hek293, 72 h
[3] = Selectivity ratio of EC50 for human HepG2 cells to EC50 for Plasmodium falciparum
[4] = system: Raji; test: Cytotoxicity against human Raji cells after 72 hrs by luminescence assay; format: cell-based
[5] = system: BJ; test: Cytotoxicity against human BJ cells after 72 hrs by luminescence assay; format: cell-based

| SMILES | Activity [1] | Activity [2] | selectivity ratio [3] | Activity [4] | Activity [5] |
| --- | --- | --- | --- | --- | --- |
| Cl.O=C(CCc1ccccc1)c1cc(F)ccc1OCC(O)CN1CCN(Cc2ccccc2)CC1 (racemic) | Non-toxic | Non-toxic | > 10 | Non-toxic | Non-toxic |
| Cc1ccccc1N1CCN(CC(O)COc2ccc(F)cc2C(=O)CCc2ccccc2)CC1.Cl (racemic) | Non-toxic | Non-toxic | > 10 | Non-toxic | Non-toxic |
| Cc1cccc(N2CCN(CC(O)COc3ccc(F)cc3C(=O)CCc3ccccc3)CC2)c1.Cl (racemic) | Non-toxic | Non-toxic | > 10 | Non-toxic | Non-toxic |
| Cc1ccc(N2CCN(CC(O)COc3ccc(F)cc3C(=O)CCc3ccccc3)CC2)cc1.Cl (racemic) | Non-toxic | Non-toxic | > 10 | Non-toxic | Non-toxic |
| COc1ccccc1N1CCN(CC(O)COc2ccc(F)cc2C(=O)CCc2ccccc2)CC1.Cl (racemic) | Non-toxic | Non-toxic | > 10 | Non-toxic | Non-toxic |
| COc1cccc(N2CCN(CC(O)COc3ccc(F)cc3C(=O)CCc3ccccc3)CC2)c1.Cl (racemic) | Non-toxic | Non-toxic | > 10 | Non-toxic | Non-toxic |
| COc1ccc(N2CCN(CC(O)COc3ccc(F)cc3C(=O)CCc3ccccc3)CC2)cc1.Cl (racemic) | Non-toxic | Non-toxic | > 10 | Non-toxic | Non-toxic |
| Cl.O=C(CCc1ccccc1)c1cc(F)ccc1OCC(O)CN1CCN(c2ccccc2Cl)CC1 (racemic) | Non-toxic | Non-toxic | > 10 | Non-toxic | Non-toxic |
| Cl.O=C(CCc1ccccc1)c1cc(F)ccc1OCC(O)CN1CCN(c2ccc(Cl)c(Cl)c2)CC1 (racemic) | Non-toxic | Non-toxic | > 10 | Non-toxic | Non-toxic |
| Cl.O=C(CCc1ccccc1)c1cc(F)ccc1OCC(O)CN1CCN(c2ccccc2F)CC1 (racemic) | Non-toxic | Non-toxic | > 10 | Non-toxic | Non-toxic |
| Cl.O=C(CCc1ccccc1)c1cc(F)ccc1OCC(O)CN1CCN(c2ccc(F)cc2)CC1 (racemic) | Non-toxic | Non-toxic | > 10 | Non-toxic | Non-toxic |
| Cl.O=C(CCc1ccccc1)c1cc(F)ccc1OCC(O)CN1CCN(c2ccc([N+](=O)[O-])cc2)CC1 (racemic) | Non-toxic | Non-toxic | > 10 | Non-toxic | Non-toxic |
| Cl.Nc1ccc(N2CCN(CC(O)COc3ccc(F)cc3C(=O)CCc3ccccc3)CC2)cc1 (racemic) | Non-toxic | Non-toxic | > 10 | Non-toxic | Non-toxic |
| Cl.O=C(CCc1ccccc1)c1cc(F)ccc1OCC(O)CN1CCN(c2ccc(O)cc2)CC1 (racemic) | Non-toxic | Non-toxic | > 10 | Non-toxic | Non-toxic |
| Cl.O=C(CCc1ccccc1)c1cc(F)ccc1OCC(O)CN1CCN(c2ccc(C(F)(F)F)cc2)CC1 (racemic) | Non-toxic | Non-toxic | > 10 | Non-toxic | Non-toxic |
| Cl.O=C(CCc1ccccc1)c1cc(F)ccc1OCC(O)CN1CCN(C(=O)c2ccccc2)CC1 (racemic) | Non-toxic | Non-toxic | > 10 | Non-toxic | Non-toxic |
| CN1CCN(CC(O)COc2ccc(F)cc2C(=O)CCc2ccccc2)CC1.Cl (racemic) | Non-toxic | Non-toxic | > 10 | Non-toxic | Non-toxic |
| CCN1CCN(CC(O)COc2ccc(F)cc2C(=O)CCc2ccccc2)CC1.Cl (racemic) | Non-toxic | Non-toxic | > 10 | Non-toxic | Non-toxic |
| Cl.O=C(CCc1ccc(F)cc1)c1cc(F)ccc1OCC(O)CN1CCCCC1 (racemic) | Non-toxic | Non-toxic | > 10 | Non-toxic | Non-toxic |

| SMILES | Activity [1] | Activity [2] | selectivity ratio [3] | Activity [4] | Activity [5] |
| --- | --- | --- | --- | --- | --- |
| Cl.O=C(CCc1ccc(F)cc1)c1cc(F)ccc1OCC(O)CN1CCC(c2ccccc2)CC1 (racemic) | Non-toxic | Non-toxic | > 10 | Non-toxic | Non-toxic |
| Cl.O=C(CCc1ccc(F)cc1)c1cc(F)ccc1OCC(O)CN1CCC(Cc2ccccc2)CC1 (racemic) | Non-toxic | Non-toxic | > 10 | Non-toxic | Non-toxic |
| Cl.O=C(CCc1ccc(F)cc1)c1cc(F)ccc1OCC(O)CN1CCC(c2ccc(Cl)cc2)CC1 (racemic) | Non-toxic | Non-toxic | > 10 | Non-toxic | Non-toxic |
| Cl.O=C(CCc1ccc(F)cc1)c1cc(F)ccc1OCC(O)CN1CCC(O)CC1 (racemic) | Non-toxic | Non-toxic | > 10 | Non-toxic | Non-toxic |
| Cl.O=C(CCc1ccc(F)cc1)c1cc(F)ccc1OCC(O)CN1CCC(O)(Cc2ccccc2)CC1 (racemic) | Non-toxic | Non-toxic | > 10 | Non-toxic | Non-toxic |
| Cl.O=C(CCc1ccc(F)cc1)c1cc(F)ccc1OCC(O)CN1CCN(c2ccccc2)CC1 (racemic) | Non-toxic | Non-toxic | > 10 | Non-toxic | Non-toxic |
| Cl.O=C(CCc1ccc(F)cc1)c1cc(F)ccc1OCC(O)CN1CCN(Cc2ccccc2)CC1 (racemic) | Non-toxic | Non-toxic | > 10 | Non-toxic | Non-toxic |
| Cc1ccccc1N1CCN(CC(O)COc2ccc(F)cc2C(=O)CCc2ccc(F)cc2)CC1.Cl (racemic) | Non-toxic | Non-toxic | > 10 | Non-toxic | Non-toxic |
| Cc1cccc(N2CCN(CC(O)COc3ccc(F)cc3C(=O)CCc3ccc(F)cc3)CC2)c1.Cl (racemic) | Non-toxic | Non-toxic | > 10 | Non-toxic | Non-toxic |
| Cc1ccc(N2CCN(CC(O)COc3ccc(F)cc3C(=O)CCc3ccc(F)cc3)CC2)cc1.Cl (racemic) | Non-toxic | Non-toxic | > 10 | Non-toxic | Non-toxic |
| COc1ccccc1N1CCN(CC(O)COc2ccc(F)cc2C(=O)CCc2ccc(F)cc2)CC1.Cl (racemic) | Non-toxic | Non-toxic | > 10 | Non-toxic | Non-toxic |
| COc1cccc(N2CCN(CC(O)COc3ccc(F)cc3C(=O)CCc3ccc(F)cc3)CC2)c1.Cl (racemic) | Non-toxic | Non-toxic | > 10 | Non-toxic | Non-toxic |
| COc1ccc(N2CCN(CC(O)COc3ccc(F)cc3C(=O)CCc3ccc(F)cc3)CC2)cc1.Cl (racemic) | Non-toxic | Non-toxic | > 10 | Non-toxic | Non-toxic |
| Cl.O=C(CCc1ccc(F)cc1)c1cc(F)ccc1OCC(O)CN1CCN(c2ccccc2Cl)CC1 (racemic) | Non-toxic | Non-toxic | > 10 | Non-toxic | Non-toxic |
| Cl.O=C(CCc1ccc(F)cc1)c1cc(F)ccc1OCC(O)CN1CCN(c2ccc(Cl)cc2)CC1 (racemic) | Non-toxic | Non-toxic | > 10 | Non-toxic | Non-toxic |
| Cl.O=C(CCc1ccc(F)cc1)c1cc(F)ccc1OCC(O)CN1CCN(c2ccc(Cl)c(Cl)c2)CC1 (racemic) | Non-toxic | Non-toxic | > 10 | Non-toxic | Non-toxic |
| Cl.O=C(CCc1ccc(F)cc1)c1cc(F)ccc1OCC(O)CN1CCN(c2ccccc2F)CC1 (racemic) | Non-toxic | Non-toxic | > 10 | Non-toxic | Non-toxic |
| Cl.O=C(CCc1ccccc1)c1cc(F)ccc1OCC(O)CN1CC[N+]([O-])(c2ccc(Cl)cc2)CC1 (racemic) | Non-toxic | Non-toxic | > 10 | Non-toxic | Non-toxic |
